SMILES: Nc1cc(C(F)(F)F)c(-c2nc(N3CCOCC3)nc(N3CCOCC3)n2)cn1 [Bimiralisib, 5-(4,6-dimorpholino-1,3,5-triazin-2-yl)-4-(trifluoromethyl)pyridin-2-amine]
- Patients with AEs (any severity) suspected to be related to treatment (7 patients of 8): 87.5%
- AE leading to dose reduction (8 patients): No patients
- Tolerability (8 patients, 140 mg orally 2 consecutive days weekly): well tolerated
- Aspiration pneumonia, AEs irrespective of causality (any grade, 2 patients of 8): 25.0%
- Confusional state, AEs irrespective of causality (any grade, 2 patients of 8): 25.0%
- Rash, AEs irrespective of causality (any grade, 2 patients of 8): 25.0%
- Vomiting, AEs irrespective of causality (any grade, 2 patients of 8): 25.0%
- Fatigue, AEs irrespective of causality (any grade, 3 patients of 8): 37.5%
- Hyperglycemia, AEs irrespective of causality (any grade, 3 patients of 8): 37.5%
- Nausea, AEs irrespective of causality (any grade, 3 patients of 8): 37.5%
- Patients who died during the study (both events unrelated to treatment): Two
- SAEs related to treatment with bimiralisib (both hyperglycemia): Two
- Patients with severe AEs (SAEs, CTCAE grade ≥3) (five patients of 8): 62.5%
- Infections and infestations, Grade 1, patients (human, in vivo): 0 n (%)
- Infections and infestations, Grade 1, total number of events (human, in vivo): 0
- Infections and infestations, Grade 2, patients (human, in vivo): 2 (25.0) n (%)
- Infections and infestations, Grade 2, total number of events (human, in vivo): 3
- Infections and infestations, Grade 3/4, total number of events (human, in vivo): 3
- Sepsis, Grade 1, patients (human, in vivo): 0 n (%)
- Sepsis, Grade 1, total number of events (human, in vivo): 0
- Sepsis, Grade 2, patients (human, in vivo): 0 n (%)
- Sepsis, Grade 2, total number of events (human, in vivo): 0
- Sepsis, Grade 3/4, patients (human, in vivo): 1 (12.5) n (%)
- Skin infection, AEs irrespective of causality (human, in vivo): 25%
- Skin infection, Grade 1, patients (human, in vivo): 0 n (%)
- Skin infection, Grade 1, total number of events (human, in vivo): 0
- Skin infection, Grade 2, patients (human, in vivo): 1 (12.5) n (%)
- Skin infection, Grade 2, total number of events (human, in vivo): 1
- Skin infection, Grade 3/4, patients (human, in vivo): 1 (12.5) n (%)
- Wound infection, Grade 1, patients (human, in vivo): 0 n (%)
- Wound infection, Grade 1, total number of events (human, in vivo): 0
- Wound infection, Grade 2, patients (human, in vivo): 1 (12.5) n (%)
- Wound infection, Grade 2, total number of events (human, in vivo): 1
- Wound infection, Grade 3/4, patients (human, in vivo): 0 n (%)
- Number of AEs (any severity) suspected to be related to treatment (in 7 patients): 23
- Acute respiratory distress syndrome, Grade 1, patients (n = 8): 0 n (%)
- Acute respiratory distress syndrome, Grade 1, total number of events (n = 8): 0
- Acute respiratory distress syndrome, Grade 2, patients (n = 8): 0 n (%)
- Acute respiratory distress syndrome, Grade 2, total number of events (n = 8): 0
- Acute respiratory distress syndrome, Grade 3/4, patients (n = 8): 1 (12.5) n (%)
- Acute respiratory distress syndrome, Grade 3/4, total number of events (n = 8): 1
- Alanine aminotransferase increased, Grade 1, patients (n = 8): 0 n (%)
- Alanine aminotransferase increased, Grade 1, total number of events (n = 8): 0
- Alanine aminotransferase increased, Grade 2, patients (n = 8): 0 n (%)
- Alanine aminotransferase increased, Grade 2, total number of events (n = 8): 0
- Alanine aminotransferase increased, Grade 3/4, patients (n = 8): 1 (12.5) n (%)
- Alanine aminotransferase increased, Grade 3/4, total number of events (n = 8): 1
- Anemia, Grade 1, patients (n = 8): 0 n (%)
- Anemia, Grade 1, total number of events (n = 8): 0
- Anemia, Grade 2, patients (n = 8): 0 n (%)
- Anemia, Grade 2, total number of events (n = 8): 0
- Anemia, Grade 3/4, patients (n = 8): 1 (12.5) n (%)
- Anemia, Grade 3/4, total number of events (n = 8): 1
- Any adverse event, Grade 1, patients (n = 8): 8 (100.0) n (%)
- Any adverse event, Grade 1, total number of events (n = 8): 29
- Any adverse event, Grade 2, patients (n = 8): 3 (37.5) n (%)
- Any adverse event, Grade 2, total number of events (n = 8): 13
- Any adverse event, Grade 3/4, patients (n = 8): 5 (62.5) n (%)
- Any adverse event, Grade 3/4, total number of events (n = 8): 15
- Aspartate aminotransferase increased, Grade 1, patients (n = 8): 0 n (%)
- Aspartate aminotransferase increased, Grade 1, total number of events (n = 8): 0
- Aspartate aminotransferase increased, Grade 2, patients (n = 8): 0 n (%)
- Aspartate aminotransferase increased, Grade 2, total number of events (n = 8): 0
- Aspartate aminotransferase increased, Grade 3/4, patients (n = 8): 1 (12.5) n (%)
- Aspartate aminotransferase increased, Grade 3/4, total number of events (n = 8): 1
- Asthenia, Grade 1, patients (n = 8): 1 (12.5) n (%)
- Asthenia, Grade 1, total number of events (n = 8): 1
- Asthenia, Grade 2, patients (n = 8): 0 n (%)
- Asthenia, Grade 2, total number of events (n = 8): 0
- Asthenia, Grade 3/4, patients (n = 8): 0 n (%)
- Asthenia, Grade 3/4, total number of events (n = 8): 0
- Blood and lymphatic system disorders, Grade 1, patients (n = 8): 0 n (%)
- Blood and lymphatic system disorders, Grade 1, total number of events (n = 8): 0
- Blood and lymphatic system disorders, Grade 2, patients (n = 8): 0 n (%)
- Blood and lymphatic system disorders, Grade 2, total number of events (n = 8): 0
- Blood and lymphatic system disorders, Grade 3/4, patients (n = 8): 1 (12.5) n (%)
- Blood and lymphatic system disorders, Grade 3/4, total number of events (n = 8): 1
- Blood creatinine increased, Grade 1, patients (n = 8): 1 (12.5) n (%)
- Blood creatinine increased, Grade 1, total number of events (n = 8): 1
- Blood creatinine increased, Grade 2, patients (n = 8): 0 n (%)
- Blood creatinine increased, Grade 2, total number of events (n = 8): 0
- Blood creatinine increased, Grade 3/4, patients (n = 8): 0 n (%)
- Blood creatinine increased, Grade 3/4, total number of events (n = 8): 0
- Blood glucose increased, Grade 1, patients (n = 8): 1 (12.5) n (%)
- Blood glucose increased, Grade 1, total number of events (n = 8): 1
- Blood glucose increased, Grade 2, patients (n = 8): 0 n (%)
- Blood glucose increased, Grade 2, total number of events (n = 8): 0
- Blood glucose increased, Grade 3/4, patients (n = 8): 0 n (%)
- Blood glucose increased, Grade 3/4, total number of events (n = 8): 0
- Cellulitis, Grade 1, patients (n = 8): 0 n (%)
- Cellulitis, Grade 1, total number of events (n = 8): 0
- Cellulitis, Grade 2, patients (n = 8): 1 (12.5) n (%)
- Cellulitis, Grade 2, total number of events (n = 8): 1
- Cellulitis, Grade 3/4, patients (n = 8): 0 n (%)
- Cellulitis, Grade 3/4, total number of events (n = 8): 0
- Chest pain, Grade 1, patients (n = 8): 1 (12.5) n (%)
- Chest pain, Grade 1, total number of events (n = 8): 1
- Chest pain, Grade 2, patients (n = 8): 0 n (%)
- Chest pain, Grade 2, total number of events (n = 8): 0
- Chest pain, Grade 3/4, patients (n = 8): 0 n (%)
- Chest pain, Grade 3/4, total number of events (n = 8): 0
- Confusional state, Grade 1, patients (n = 8): 2 (25.0) n (%)
- Confusional state, Grade 1, total number of events (n = 8): 2
- Confusional state, Grade 2, patients (n = 8): 0 n (%)
- Confusional state, Grade 2, total number of events (n = 8): 0
- Confusional state, Grade 3/4, patients (n = 8): 0 n (%)
- Confusional state, Grade 3/4, total number of events (n = 8): 0
- Cough, Grade 1, patients (n = 8): 1 (12.5) n (%)
- Cough, Grade 1, total number of events (n = 8): 1
- Cough, Grade 2, patients (n = 8): 0 n (%)
- Cough, Grade 2, total number of events (n = 8): 0
- Cough, Grade 3/4, patients (n = 8): 0 n (%)
- Cough, Grade 3/4, total number of events (n = 8): 0
- Decreased appetite, Grade 1, patients (n = 8): 0 n (%)
- Decreased appetite, Grade 1, total number of events (n = 8): 0
- Decreased appetite, Grade 2, patients (n = 8): 1 (12.5) n (%)
- Decreased appetite, Grade 2, total number of events (n = 8): 1
- Decreased appetite, Grade 3/4, patients (n = 8): 0 n (%)
- Decreased appetite, Grade 3/4, total number of events (n = 8): 0
- Dehydration, Grade 1, patients (n = 8): 0 n (%)
- Dehydration, Grade 1, total number of events (n = 8): 0
- Dehydration, Grade 2, patients (n = 8): 1 (12.5) n (%)
- Dehydration, Grade 2, total number of events (n = 8): 1
- Dehydration, Grade 3/4, patients (n = 8): 0 n (%)
- Dehydration, Grade 3/4, total number of events (n = 8): 0
- Diarrhea, Grade 1, patients (n = 8): 0 n (%)
- Diarrhea, Grade 1, total number of events (n = 8): 0
- Diarrhea, Grade 2, patients (n = 8): 1 (12.5) n (%)
- Diarrhea, Grade 2, total number of events (n = 8): 1
- Diarrhea, Grade 3/4, patients (n = 8): 0 n (%)
- Diarrhea, Grade 3/4, total number of events (n = 8): 0
- Disease progression, Grade 1, patients (n = 8): 0 n (%)
- Disease progression, Grade 1, total number of events (n = 8): 0
- Disease progression, Grade 2, patients (n = 8): 0 n (%)
- Disease progression, Grade 2, total number of events (n = 8): 0
- Disease progression, Grade 3/4, patients (n = 8): 1 (12.5) n (%)
- Disease progression, Grade 3/4, total number of events (n = 8): 1
- Dry skin, Grade 1, patients (n = 8): 1 (12.5) n (%)
- Dry skin, Grade 1, total number of events (n = 8): 1
- Dry skin, Grade 2, patients (n = 8): 0 n (%)
- Dry skin, Grade 2, total number of events (n = 8): 0
- Dry skin, Grade 3/4, patients (n = 8): 0 n (%)
- Dry skin, Grade 3/4, total number of events (n = 8): 0
- Dysarthria, Grade 1, patients (n = 8): 1 (12.5) n (%)
- Dysarthria, Grade 1, total number of events (n = 8): 1
- Dysarthria, Grade 2, patients (n = 8): 0 n (%)
- Dysarthria, Grade 2, total number of events (n = 8): 0
- Dysarthria, Grade 3/4, patients (n = 8): 0 n (%)
- Dysarthria, Grade 3/4, total number of events (n = 8): 0
- Ear and labyrinth disorders, Grade 1, patients (n = 8): 2 (25.0) n (%)
- Ear and labyrinth disorders, Grade 1, total number of events (n = 8): 2
- Ear and labyrinth disorders, Grade 2, patients (n = 8): 0 n (%)
- Ear and labyrinth disorders, Grade 2, total number of events (n = 8): 0
- Ear and labyrinth disorders, Grade 3/4, patients (n = 8): 0 n (%)
- Ear and labyrinth disorders, Grade 3/4, total number of events (n = 8): 0
- Ear pain, Grade 1, patients (n = 8): 1 (12.5) n (%)
- Ear pain, Grade 1, total number of events (n = 8): 1
- Ear pain, Grade 2, patients (n = 8): 0 n (%)
- Ear pain, Grade 2, total number of events (n = 8): 0
- Ear pain, Grade 3/4, patients (n = 8): 0 n (%)
- Ear pain, Grade 3/4, total number of events (n = 8): 0
- Eye disorder, Grade 1, patients (n = 8): 1 (12.5) n (%)
- Eye disorder, Grade 1, total number of events (n = 8): 1
- Eye disorder, Grade 2, patients (n = 8): 0 n (%)
- Eye disorder, Grade 2, total number of events (n = 8): 0
- Eye disorder, Grade 3/4, patients (n = 8): 0 n (%)
- Eye disorder, Grade 3/4, total number of events (n = 8): 0
- Eye disorders, Grade 1, patients (n = 8): 1 (12.5) n (%)
- Eye disorders, Grade 1, total number of events (n = 8): 1
- Eye disorders, Grade 2, patients (n = 8): 0 n (%)
- Eye disorders, Grade 2, total number of events (n = 8): 0
- Eye disorders, Grade 3/4, patients (n = 8): 0 n (%)
- Eye disorders, Grade 3/4, total number of events (n = 8): 0
- Fatigue, Grade 1, patients (n = 8): 2 (25.0) n (%)
- Fatigue, Grade 1, total number of events (n = 8): 2
- Fatigue, Grade 2, patients (n = 8): 1 (12.5) n (%)
- Fatigue, Grade 2, total number of events (n = 8): 1
- Fatigue, Grade 3/4, patients (n = 8): 0 n (%)
- Fatigue, Grade 3/4, total number of events (n = 8): 0
- Gait disturbance, Grade 1, patients (n = 8): 1 (12.5) n (%)
- Gait disturbance, Grade 1, total number of events (n = 8): 1
- Gait disturbance, Grade 2, patients (n = 8): 0 n (%)
- Gait disturbance, Grade 2, total number of events (n = 8): 0
- Gait disturbance, Grade 3/4, patients (n = 8): 0 n (%)
- Gait disturbance, Grade 3/4, total number of events (n = 8): 0
- Gastroesophageal reflux disease, Grade 1, patients (n = 8): 1 (12.5) n (%)
- Gastroesophageal reflux disease, Grade 1, total number of events (n = 8): 1
- Gastroesophageal reflux disease, Grade 2, patients (n = 8): 0 n (%)
- Gastroesophageal reflux disease, Grade 2, total number of events (n = 8): 0
- Gastroesophageal reflux disease, Grade 3/4, patients (n = 8): 0 n (%)
- Gastroesophageal reflux disease, Grade 3/4, total number of events (n = 8): 0
- Gastrointestinal disorders, Grade 1, patients (n = 8): 2 (25.0) n (%)
- Gastrointestinal disorders, Grade 1, total number of events (n = 8): 2
- Gastrointestinal disorders, Grade 2, patients (n = 8): 3 (37.5) n (%)
- Gastrointestinal disorders, Grade 2, total number of events (n = 8): 5
- Gastrointestinal disorders, Grade 3/4, patients (n = 8): 0 n (%)
- Gastrointestinal disorders, Grade 3/4, total number of events (n = 8): 0
- General disorders and administration site conditions, Grade 1, patients (n = 8): 5 (62.5) n (%)
